Consider 6 compounds from patent US4447445A (priority 1983, dated 1984).

SMILES strings stand for the structures. ≈ marks a conversion by molar mass, not a printed value. Where “and” joins values, the source holds several entries; their conditions need not be identical. Identical values can stand only once. Entries after “also recorded” stand apart in the source; their conditions may differ. Some results are limits rather than exact numbers.

Assay [1] concerns spontaneous beating isolated guinea pig auricles. Briefly: Guinea Pig Auricles. The note with it: for effects on cardiac muscle: preliminary assays. The procedure:
Test compound is administered to the spontaneous beating isolated guinea pig auricles and observed for its ability to alter either the rate or the force of contraction or to antagonize the effects of acetylcholine [modified from J. Physiol. 61, 547 (1926); Heffter's Hanb. Exp. Pharmak. 4, 185 (1937)].

Assay [2] has as its system eggs (from Lytechinus pictus). Briefly: Fertilized Sea Urchin Egg Inhibition of Cleavage Assay. In kind it is cell-based. To be noted: for inhibition of cell division: preliminary assays. The procedure: Test compound is added to a slurry of eggs (from Lytechinus pictus) within five minutes following fertilization and incubated until the completion of first division in control slurry, approximately 90 minutes. Inhibition is measured as the percent of undivided eggs in the slurry at the end of incubation [Hinegardner, R., In The Sea Urchin Embryo, ed. C. Czihar (Springer-Verlag, Berlin, 1974)].

Assay [3] has as its system PMA induced inflammation of mouse ears. The assay is described as follows: PMA Mouse Ear Anti-Inflammatory Assay. To be noted: for % Inhibition of Edema Alone: Manoalide 0.04 mg/ear, Hydrocortisone 0.009 mg/ear, Indomethacin 0.09 mg/ear. In kind it is in vivo. The procedure:
(§1) Test compound and phorbol myristate acetate (PMA) or arachidonic acid (ARA) are topically applied simultaneously to the left ears of mice. Three hours 20 minutes (or one hour for ARA) after application, the mouse is sacrificed, left and right ears removed and standard sized bores taken. Edema (inflammation) is measured as the difference in weight between left and right ears [Van Arman, C. G., Clin. Pharmacol. Ther. 16, 900-904 (1974)].

The next assay relates to isolated diaphragm. Briefly: Rat Phrenic Nerve - Hemidiaphragm. To be noted: for effects on skeletal muscle: preliminary assays. The procedure:
Compound is tested for its ability to inhibit or facilitate the twitch of the isolated diaphragm in response to the electrical stimulation of the phrenic nerve [Bulbring, E., Br. J. Pharmac. Chemother. 1, 38 (1946)].

In assay [4] the test system is oxazolone induced inflammation of mouse ears. Briefly: Oxazolone-Induced Sensitization inflammation. In kind it is in vivo. The note with it: for EAR WEIGHT (MGS): with oxazolone. The procedure: Mice are sensitized by the application of oxazolone to the abdominal area. One week later, test compound and oxazolone are topically applied to the ears of these mice. Six hours after application, the mice are sacrificed, the ears removed and standard sized bores taken and weighed. Edema (inflammation) is measured as the difference in weight between control and treated ears. Without previous sensitization exposure, oxazolone has no inflammatory effect on mouse ears.

The test system of assay [5] is ARA induced inflammation of mouse ears. The assay is described as follows: Arachidonic Acid Mouse Ear Assay. The note with it: in vivo. The procedure: as §1
For assay [6], the system named is isolated section of small intestine. The assay is described as follows: Guinea Pig Ileum. The note with it: initial screening.
The test system of a further assay is isolated rat uterus. Briefly: Rat Uterus (Prostaglandin Assay). The note with it: against PGE2, PGE1 and PGF2.
Assay [7] deals with mice. Briefly: Acute Toxicity (with analgesia screening). It counts as in vivo, mouse. To be noted: initial screening. The procedure: Test compound is injected subcutaneously into mice which are observed for three days for both lethality and any unusual behavior or appearance. This assay may be performed in conjunction with analgesia assays.
The target of a further assay is T1, acetylcholinesterase (Rattus norvegicus, UniProt P37136).
T1 construct: rat brain extract (source of acetylcholinesterase); from tissue; host or cells: rat brain extract
Briefly: Acetylcholinesterase Assay. It counts as biochemical. The procedure:
Test compound is incubated with rat brain extract (source of acetylcholinesterase), acetylthiocholine and dithiobis (2-nitrobenzoic acid). Inhibition of acetylcholinesterase activity is measured spectrophotometrically.

In the next assay the target is β-bungarotoxin (Bungarus multicinctus, UniProt P00617).
In assay [8] the test system is tumors formed on mouse ears. Briefly: Tumor Promotion (DMBA/PMA mouse ear). In kind it is in vivo. To be noted: PMA as promoter with initiator DMBA. The source says:
An initiating agent, 7,12-dimethylbenzanthracene (DMBA), is applied topically to the ears of mice. Beginning one month later, a tumor promoting agent, phorbol myristate acetate (PMA), and the test compound are applied simultaneously to the ears twice per week for four weeks, then once per week for two weeks. Ears are observed for formation of tumors at the times of application and one week following completion of applications.

Another assay concerns mouse ears. The assay is described as follows: Histology of mouse ears from the anti-inflammatory assay. The note with it: in vivo. The source says: Mouse ears from the anti-inflammatory assay are fixed in Karnofsky's fixative and osmium tetroxide and then embedded in araldite epoxy resin for sectioning for light and electron microscopy.
For assay [9], the system named is electrically driven section of isolated small intestine. Briefly: Electrically Stimulated Guinea Pig Ileum.
The test system of assay [10] is PMA induced inflammation of mouse ears. The assay is described as follows: PMA Mouse Ear Anti-Inflammatory Assay. To be noted: in vivo.
Assay [11] addresses phospholipase A2 from bee venom (Apis mellifera, UniProt P00630). In kind it is biochemical.
Assay [12] deals with mice. Briefly: Analgesia - Haffner Technique (tail clip). In kind it is in vivo, mouse. The note with it: high doses. The procedure:
Analgesia is measured as the lack of response to a pinch clamp applied to the tail of a mouse 15 to 30 minutes following subcutaneous injection of the test compound [Bianchi, G. and G. Franeschini, Brit. J. Pharmac. 9, 280 (1954)].

Where [13] appears, read: mouse, in vivo, listed as manoalide.

Sequence of phospholipase A2 from bee venom (P00630 34-167 limits assumed): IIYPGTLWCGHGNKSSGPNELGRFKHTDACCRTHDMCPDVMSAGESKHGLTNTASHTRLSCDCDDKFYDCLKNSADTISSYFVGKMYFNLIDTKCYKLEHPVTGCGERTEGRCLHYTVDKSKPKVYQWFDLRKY
Sequence of β-bungarotoxin (P00617 whole entry, looked up): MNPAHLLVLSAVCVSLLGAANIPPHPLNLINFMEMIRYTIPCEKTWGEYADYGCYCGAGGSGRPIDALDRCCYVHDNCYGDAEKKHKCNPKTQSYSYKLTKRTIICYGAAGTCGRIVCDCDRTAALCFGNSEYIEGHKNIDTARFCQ
T1 sequence (P37136 32-614): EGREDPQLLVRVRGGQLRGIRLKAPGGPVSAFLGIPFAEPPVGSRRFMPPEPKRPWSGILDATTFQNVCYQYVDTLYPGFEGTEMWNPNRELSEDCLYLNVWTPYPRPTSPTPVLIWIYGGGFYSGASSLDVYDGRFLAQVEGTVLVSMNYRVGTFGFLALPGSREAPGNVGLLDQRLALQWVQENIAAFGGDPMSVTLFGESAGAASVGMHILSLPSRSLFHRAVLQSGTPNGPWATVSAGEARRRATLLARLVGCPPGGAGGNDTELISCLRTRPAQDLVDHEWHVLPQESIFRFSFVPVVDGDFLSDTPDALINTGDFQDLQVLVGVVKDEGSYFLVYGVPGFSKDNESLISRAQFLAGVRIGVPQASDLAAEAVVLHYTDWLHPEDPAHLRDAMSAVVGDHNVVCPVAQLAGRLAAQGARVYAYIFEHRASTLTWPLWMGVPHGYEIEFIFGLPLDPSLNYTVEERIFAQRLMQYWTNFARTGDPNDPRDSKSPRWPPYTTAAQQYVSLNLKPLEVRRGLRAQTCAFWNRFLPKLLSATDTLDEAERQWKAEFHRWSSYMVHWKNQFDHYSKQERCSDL

Turning to `CC(=CCCC(C=O)=CC=CC1=CC(=O)OC1O)CCC1=C(C)CCCC1(C)C` (single isomer, unassigned) [dehydro-seco-manoalide], the “effects on cardiac muscle” value in [1] is on record as “no significant activity”. Besides, the “inhibition of cell division” value in [2] is given as “no significant activity”. In assay [3] (mouse, in vivo), the “PMA Mouse Ear anti-inflammatory activity (remark)” value is recorded as “anti-inflammatoryactivity” and the “anti-inflammatory potency relative to comparators” value is reported as “nearly equivalent in potency to that of manoalide”. In addition, the “effects on skeletal muscle” value with isolated diaphragm is on record as “no significant activity”.

With `C[C@]12CCC(=O)C=C1CC[C@@H]1[C@@H]2[C@@H](O)C[C@@]2(C)[C@H]1CC[C@]2(O)C(=O)CO` [Hydrocortisone, hydrocortisone, reference compound], the “EAR WEIGHT (MGS)” value in assay [4] (dose 50 μg/ear) came to 9.7 ± 1.2 MGS; in [4] (dose 100 μg/ear) it was 9.2 ± 0.4 MGS. Further, the “effect on ARA induced ear inflammation” value in [5] is given as “Neither manoalide nor hydrocortisone affected the ARA induced inflammation”. In [3], the “% Inhibition of Edema Alone” value was 16.59 ± 7.00%.

As to `COc1ccc2c(c1)c(CC(=O)O)c(C)n2C(=O)c1ccc(Cl)cc1` [Indomethacin, indomethacin, reference compound], the “EAR WEIGHT (MGS)” value is given as 16.6 ± 5.7 MGS in assay [4] (dose 50 μg/ear) and 11.1 ± 1.2 MGS in [4] (dose 100 μg/ear). Moreover, the “effect on ARA induced ear inflammation” value in assay [5] is “effectively blocked”. Besides, the “% Inhibition of Edema Alone” value in assay [3] was determined as 31.42 ± 12.72%.

In the case of `CC1=C(CC/C(C)=C/CCC2=CCC(C3=CC(=O)OC3O)OC2O)C(C)(C)CCC1` (centres unmarked) [Manoalide], in assay [6], the “Guinea Pig Ileum (remark)” value is reported as “Active”. The “EAR WEIGHT (MGS)” value in [4] (dose 50 μg/ear) came out at 17.5 ± 3.7 MGS. Besides, the “EAR WEIGHT (MGS)” value in assay [4] (dose 100 μg/ear) is listed as 13.1 ± 1.4 MGS. Moreover, in assay [4] (setting [13]), the “effect on oxazolone induced inflammation” value is reported as “blocks the oxazolone induced inflammation”. Moreover, the “Rat Uterus (Prostaglandin Assay) activity” value in the assay with isolated rat uterus was “Inactive”. The “Rat Uterus (Prostaglandin Assay) activity” value in the assay with isolated rat uterus (listed as manoalide) was “inactive against these agents”. In addition, the “Mouse Toxicity and Analgesia (remark)” value in the assay on mice [7] was “Active”. The “Acetylcholine Antagonism in Guinea Pig Auricles” value in assay [1] is given as “Inactive”. In assay [1] (initial screening), the “Guinea Pig Auricles (remark)” value was “Active”. Further, the “effect on ARA induced ear inflammation” value in assay [5] is “Inactive”. Moreover, the “effect on ARA induced ear inflammation” value in assay [5] (listed as manoalide) was “Neither manoalide nor hydrocortisone affected the ARA induced inflammation”. Besides, at acetylcholinesterase, the “Acetylcholinesterase (remark)” value was “Inactive”. Further, the “inactivation of β-Bungarotoxin neurotoxic action” value on β-bungarotoxin is “inactivated the irreversible neurotoxic action of β-bungarotoxin; also recorded: prevents the paralytic action of β-bungarotoxin”. Further, in assay [8], the “incidence of tumors formed on mouse ears” value is listed as “significantly decreases the incidence of tumors”. Also, in assay [2] (Lytechinus pictus, 1.5 h, read-out: Fertilized Sea Urchin Egg ED50), the IC50 was 1 µg/mL (≈ 2.4 µM). Besides, the “Fertilized Sea Urchin Egg Inhibition of Cleavage (remark)” value in assay [2] (initial screening) is listed as “Active”. The “Histology of PMA treated ears” value in the assay on mouse ears was “Decreased lymphocyte”. The “Histology of PMA treated ears” value in the assay with mouse ears (listed as manoalide) is “qualitatively produced similar effects to both hydrocortisone and indomethacin”. Besides, in assay [9], the “Electrically Stimulated Guinea Pig Ileum (remark)” value is given as “Inactive”, the “antagonism of the morphine block” value is “nor did it antagonize the morphine block” and the “block of electrically induced contractions” value is reported as “neither blocked electrically induced contractions”. In addition, the “PMA - Mouse Ear Time Course of Action: time of optimum activity relative to PMA application” value in [10] is < 5 min. Besides, in assay [10] (listed as manoalide), the “PMA - Mouse Ear Time Course of Action: time of optimum activity relative to PMA application” value is “five”. Moreover, the “% Inhibition of Edema Alone” value in assay [3] was 28.24 ± 6.58%. In [3] (mouse, in vivo), the “PMA - Mouse Ear Competition for binding” value is “Does not compete”; the “PMA - Mouse Ear Potentiation (with Hydrocortisone and Indomethacin)” value was “Active”; the “PMA Mouse Ear anti-inflammatory activity (remark)” value is on record as “Active; also recorded: blocks this inflammation”; the “anti-inflammatory potency relative to comparators” value was “greater than that of indomethacin; also recorded: less potent than hydrocortisone”. Besides, the “anti-inflammatory potency relative to comparators” value in assay [3] (setting [13]) was “more potent than indomethacin and less potent than hydrocortisone”. The “ED50 (PMA induced ear inflammation)” value in assay [3] (topical, will vary with PMA dose) is recorded as ~40 μg/ear. Moreover, the “reduction of inflammation due to PMA induction” value in [3] (total dose of 10 μg applied to the ear) was “marked reduction of inflammation”. For the same compound, in [11], the “Inhibition of purified phosplolipase A2 (remark)” value is recorded as “Active”, the “effect on enzyme activity (hydrolysis of phosphatidylcholine)” value was “concentration dependent decrease in enzyme activity; also recorded: potent inhibitor of the hydrolysis of phosphatidylcholine” and the “type of inhibition of phospholipase A2” value is reported as “non-competitive inhibitor”. Moreover, in the assay with mice [12], the “Analgesia (Haffner Tail-Clip), mechanically induced pain” value is listed as “Inactive”. The “Analgesia (Haffner Tail-Clip), mechanically induced pain” value in the assay with mice [12] (listed as manoalide) is “did not significantly affect mechanically induced pain”. Further, in the assay with isolated diaphragm, the “contracture in the rat hemidiaphragm preparation” value was “modest contracture” and the “effect on the directly stimulated twitch” value is “mildly inhibiting the directly stimulated twitch”. For the same compound, the “Rat Phrenic Nerve - Hemidiaphragm (remark)” value in the assay on isolated diaphragm (initial screening) is “Active”.

Take `CCN(CC)CCCC(C)Nc1c2ccc(Cl)cc2nc2ccc(OC)cc12` (centres unmarked) [mepacrine]: the “Mean TI50 ± S.E.” value on β-bungarotoxin was 43.50 ± 2.50 and 49.00 ± 4.00 and 46.60 ± 7.54 and 35.66 ± 4.67. Moreover, in [11], the “effect on enzyme activity (hydrolysis of phosphatidylcholine)” value is “ineffective”.

Consider `CC1=C(CC/C(C)=C/CCC(C=O)=CCC(O)C2=CC(=O)OC2O)C(C)(C)CCC1` (centres unmarked) [seco-manoalide], for which the “effects on cardiac muscle” value in [1] was “no significant activity”. Besides, in assay [2], the “inhibition of cell division” value is on record as “no significant activity”. Besides, in [3] (mouse, in vivo), the “PMA Mouse Ear anti-inflammatory activity (remark)” value was “anti-inflammatoryactivity” and the “anti-inflammatory potency relative to comparators” value was “nearly equivalent in potency to that of manoalide”. Moreover, the “effects on skeletal muscle” value with isolated diaphragm is listed as “no significant activity”.
